Results reported in ChEMBL document CHEMBL1130516, “Synthesis and biological activity of novel penem sulfoxides and sulfones” (Bioorg Med Chem Lett, 1997).

Tests used:
Staphylococcus aureus = assay: Inhibitory zone of compound at 30 ug against Staphylococcus aureus 1104 was determined; type: functional
Beta-lactamase TEM [1] = molecular target: T1, Beta-lactamase TEM (Escherichia coli, UniProt P62593); assay: (§1) Compound was evaluated for beta-lactamase inhibition activity of Escherichia coli after 15 min of pre-incubation with the enzyme at 37 degree C
Enterococcus = assay: Inhibitory zone of compound at 30 ug against Enterococcus was determined; type: functional
Staphylococcus [2] = assay: Inhibitory zone of compound at 30 ug against Staphylococcus 25768 was determined; type: functional
[3] = Compound was evaluated for half life of hydrolysis in phosphate buffer at pH 7.4 and 37 degree C; type: ADME
Pseudomonas aeruginosa = assay: Inhibitory zone of compound at 30 ug against Pseudomonas aeruginosa was determined; type: functional
Enterobacter cloacae = assay: Inhibitory zone of compound at 30 ug against Enterobacter cloacae was determined; type: functional
Staphylococcus [4] = assay: Inhibitory zone of compound at 30 ug against Staphylococcus innsbruck was determined; type: functional
Beta-lactamase = Beta-lactamase (Enterobacter cloacae, UniProt P05364); assay: Compound was evaluated for beta-lactamase inhibition activity of Enterobacter cloacae after 15 min of pre-incubation with the enzyme at 37 degree C
Escherichia coli [5] = assay: Inhibitory zone of compound at 30 ug against Escherichia coli TEM was determined; type: functional
Escherichia coli [6] = assay: Inhibitory zone of compound at 30 ug against Escherichia coli 1103 was determined; type: functional
[7] = Compound was evaluated for relative hydrolysis rate; type: ADME
Beta-lactamase TEM [8] = molecular target: T1, Beta-lactamase TEM; assay: as §1; parameters: species or system Escherichia cloacae

Chain of Beta-lactamase (P05364 whole entry): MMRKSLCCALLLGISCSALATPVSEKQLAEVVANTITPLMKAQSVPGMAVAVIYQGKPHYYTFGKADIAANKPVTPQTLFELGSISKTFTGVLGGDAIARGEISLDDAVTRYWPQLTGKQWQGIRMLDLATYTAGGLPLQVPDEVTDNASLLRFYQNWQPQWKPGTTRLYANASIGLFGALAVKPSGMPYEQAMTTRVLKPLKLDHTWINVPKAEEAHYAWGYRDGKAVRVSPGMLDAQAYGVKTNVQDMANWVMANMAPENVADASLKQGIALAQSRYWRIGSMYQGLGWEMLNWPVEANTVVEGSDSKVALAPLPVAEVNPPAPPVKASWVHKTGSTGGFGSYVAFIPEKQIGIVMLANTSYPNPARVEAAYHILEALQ
T1 sequence (P62593 whole entry): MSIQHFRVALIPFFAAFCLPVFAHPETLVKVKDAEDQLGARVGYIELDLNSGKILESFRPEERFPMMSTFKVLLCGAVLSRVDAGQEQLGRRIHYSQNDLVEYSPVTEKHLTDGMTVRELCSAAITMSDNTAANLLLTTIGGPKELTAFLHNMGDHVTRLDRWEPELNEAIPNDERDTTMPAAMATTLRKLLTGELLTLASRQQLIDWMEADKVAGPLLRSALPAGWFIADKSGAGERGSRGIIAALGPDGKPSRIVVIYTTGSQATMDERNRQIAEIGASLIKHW

Row | Structure (SMILES) | Inhibition zone (Staphylococcus aureus) [mm] | IC50 (Beta-lactamase TEM [1]) [µM] | Inhibition zone (Enterococcus) [mm] | Inhibition zone (Staphylococcus [2]) [mm] | half-life [3] [h] | Inhibition zone (Pseudomonas aeruginosa) [mm] | Inhibition zone (Enterobacter cloacae) [mm] | Inhibition zone (Staphylococcus [4]) [mm] | IC50 (Beta-lactamase) [µM] | Inhibition zone (Escherichia coli [5]) [mm] | Inhibition zone (Escherichia coli [6]) [mm] | Krel [7] | IC50 (Beta-lactamase TEM [8]) [µM]
1 | C[C@@H](O)[C@H]1C(=O)N2C(C(=O)[O-])=C(C(C)(C)C)[S+]([O-])[C@H]12.[K+] (some centres undefined) | 30 | 90 | 0 | 24 | 6.5 | 0 | 7 | 0 | 0.3 | 13 | 20 | 33 | –
2 | CC(C)(C)C1=C(C(=O)[O-])N2C(=O)C[C@H]2S1.[K+] | 40 | – | 0 | 0 | 9 | 0 | 0 | 0 | – | 0 | 11 | 1 | –
3 | C[C@@H](O)[C@H]1C(=O)N2C(C(=O)[O-])=C(C(C)(C)C)S(=O)(=O)[C@H]12.[K+] | 0 | 10 | 0 | 0 | 18 | 0 | 0 | 0 | 0.004 | 0 | 0 | 720 | –
4 | N[C@@H](C(=O)N[C@@H]1C(=O)N2C(C(=O)O)=C(Cl)CS[C@H]12)c1ccccc1.O [CEFACLOR] | 32 | – | 15 | 13 | – | 0 | 7 | 12 | – | 15 | 25 | – | –
5 | C[C@@H](O)[C@H]1C(=O)N2C(C(=O)[O-])=C(C(C)(C)C)S[C@H]12.[K+] | 36 | – | 11 | 31 | 16 | 0 | 10 | 0 | 0.3 | 9 | 18 | 0.6 | 50
6 | CC(C)(C)C1=C(C(=O)[O-])N2C(=O)C[C@H]2[S+]1[O-].[K+] (some centres undefined) | 36 | – | 0 | 8 | 5.5 | 0 | 0 | 0 | – | 0 | 10 | 39 | –
